Where a name gives a salt, the structure may show the parent alone. Read-outs that look alike come from different tables or passages of the source.
How the values were obtained:
[1] = target: Recombinant human PARP (Homo sapiens, UniProt P09874); test: PARP enzyme activity inhibitory action; conditions: for IC50: 3H-NAD, activated DNA, 25° C. 15 min
Description: After incubation at 25° C. for 15 min., the reaction was quenched with 20% trichloroacetic acid, and the resulting acid insoluble fraction was adsorbed on a GF/B filter. The filter was washed several times with 5% trichloroacetic acid, and the radiation dose on the filter was measured by liquid scintillation counter.

[2] = test system: P388D1 cells; test: Hydrogen peroxide (H2O2) induced cytotoxicity suppressive action; format: cell-based; conditions: H2O2 (2 mM), 4 hr, LDH activity, read-out: Cell death suppressive action IC50
Description: P388D1 cells cultured to confluence in a 25 cm^2 flask were sown in 96-well plate at a density of […]. The test compound was added, and the cells were incubated for 15 min (37° C.), after which H2O2 (2 mM) was added, and the cells were incubated for 4 hr. After the completion of the incubation, the culture supernatant was recovered, and the LDH activity, which is an index of cytotoxicity, was measured using an LDH-cytotoxicity test kit (Wako Pure Chemical Industries, Ltd.).

[3] = Stability test in 0.1 mol/L aqueous citric acid solution (HPLC residual ratio); format: physicochemical; conditions: 5 mg in 1 ml 0.1 mol/L aqueous citric acid, room temperature
Description: Each test compound (5 mg) was dissolved in 0.1 mol/L aqueous citric acid solution (1 ml), and the residual ratio of each compound was measured by HPLC under shading or no shading at room temperature one day and 8 days later. The residual ratio was calculated by comparing the area of HPLC immediately after dissolution of each compound with the area of HPLC one day or 8 days later.
column CAPCELPAK UG120 (C18)(Shiseido Co., Ltd.)
mobile phase 50 mmol/L aqueous sodium perchlorate solution (pH
detection wavelength 254 nm

[4] = target: adrenalin α1 receptor; test: Affinity for adrenalin α1 receptor; 3H-prazosin binding; conditions: rat brain crude synapse membrane, 25° C. 30 min
Description: Preparation of crude synapse membrane and binding experiment were performed according to European Journal of Pharmacology, vol. 55, page 323 (1979). Crude synapse membranes were prepared from cryopreserved rat brain tissues, and a membrane sample and 3H-prazosin were incubated in the presence of a test compound at 25° C. for 30 min. […] The amount of non-specific binding was determined in the presence of 1 μM prazosin. The 50% suppression concentration (IC50) of the test compound was calculated from nonlinear regression, and the inhibition constant (Ki value) was determined.

[5] = PARP inhibitory activity IC50 (nM), average of 2 measurements
[6] = PARP inhibitory activity IC50 (nM), average of 3 measurements

Recombinant human PARP, sequence (P09874 whole entry): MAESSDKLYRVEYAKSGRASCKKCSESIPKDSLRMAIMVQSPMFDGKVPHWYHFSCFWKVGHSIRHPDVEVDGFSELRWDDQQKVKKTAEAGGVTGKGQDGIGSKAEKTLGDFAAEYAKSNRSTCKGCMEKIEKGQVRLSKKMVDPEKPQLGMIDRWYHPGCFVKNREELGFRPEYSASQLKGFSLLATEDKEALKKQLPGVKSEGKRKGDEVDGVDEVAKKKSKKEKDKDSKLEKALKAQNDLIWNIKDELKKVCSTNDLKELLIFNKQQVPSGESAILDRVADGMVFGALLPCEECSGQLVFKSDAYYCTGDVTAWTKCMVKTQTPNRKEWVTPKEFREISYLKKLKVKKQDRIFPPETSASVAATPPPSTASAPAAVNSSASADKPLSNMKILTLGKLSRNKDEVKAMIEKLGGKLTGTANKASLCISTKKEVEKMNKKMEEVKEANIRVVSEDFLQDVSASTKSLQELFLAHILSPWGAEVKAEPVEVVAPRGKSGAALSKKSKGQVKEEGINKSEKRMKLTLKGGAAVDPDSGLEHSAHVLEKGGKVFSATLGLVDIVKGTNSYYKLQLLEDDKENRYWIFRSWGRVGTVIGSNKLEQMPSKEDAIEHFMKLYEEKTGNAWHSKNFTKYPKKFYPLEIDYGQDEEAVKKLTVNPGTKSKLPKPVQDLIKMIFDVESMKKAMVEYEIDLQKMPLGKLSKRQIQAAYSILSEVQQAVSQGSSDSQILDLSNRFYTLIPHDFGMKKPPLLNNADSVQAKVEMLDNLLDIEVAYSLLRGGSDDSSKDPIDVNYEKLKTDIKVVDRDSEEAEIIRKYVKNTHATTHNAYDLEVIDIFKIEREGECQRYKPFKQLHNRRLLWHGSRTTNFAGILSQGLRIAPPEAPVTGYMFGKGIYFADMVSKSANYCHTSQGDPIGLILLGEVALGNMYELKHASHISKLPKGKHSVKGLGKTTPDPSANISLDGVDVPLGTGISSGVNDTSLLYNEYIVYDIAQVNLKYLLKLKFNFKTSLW

Compound	IC50 [1, 6]	IC50 ([2]; Mus musculus)	melting point	also measured
O=C1NCCc2c(OCCCCN3CCCCC3)cccc21 [DPQ, 3,4-dihydro-5-[4-(1-piperidinyl)-butoxy]-1(2H)-isoquinoline, reference compound]				IC50 ([1]; read-out: PARP inhibitory activity IC50, average of 3 measurements): 1000 nM; IC50 [2]: 3300 nM
Cc1cccc2c(=O)[nH]c(N3CCN(C)CC3)cc12 [Example 1, 5-methyl-3-(4-methylpiperazin-1-yl)-2H-isoquinolin-1-one]	38 nM	120 nM		IC50 [1, 5]: 42 nM
Cc1cccc2c(=O)[nH]c(N3CCC(N(C)C)CC3)cc12 [Example 12, 5-methyl-3-(4-dimethylaminopiperidin-1-yl)-2H-isoquinolin-1-one]	37 nM	110 nM		IC50 [1, 5]: 34 nM
CN(C)C1CCN(c2cc3c(Cl)cccc3c(=O)[nH]2)CC1 [Example 29, 5-chloro-3-(4-dimethylaminopiperidin-1-yl)-2H-isoquinolin-1-one]	65 nM		210 to 211 °C (dec.)	
CN1CCC(c2cc3ccccc3c(=O)[nH]2)CC1 [Example 82, 3-(1-methylpiperidin-4-yl)-2H-isoquinolin-1-one ⅕ water adduct]	34 nM	190 nM		residual ratio (%) under shading 1 day later [3]: ≈100%; residual ratio (%) under shading 8 days later [3]: ≈100%; residual ratio (%) without shading 1 day later [3]: ≈100%; residual ratio (%) without shading 8 days later [3]: ≈100%
Cc1cccc2c(=O)[nH]c(CCCN(C)C)cc12 [Example 90, 3-(3-(dimethylamino)propyl)-5-methyl-2H-isoquinolin-1-one]	26 nM	140 nM		
CN1CCC(c2[nH]c(=O)c3ccccc3c2-c2ccccc2)CC1 [Example 98, 3-(1-methylpiperidin-4-yl)-4-phenyl-2H-isoquinolin-1-one ⅕ water adduct]	87 nM		258 to 260 °C (dec.)	
CN1CCC(c2cc3c(F)cccc3c(=O)[nH]2)CC1 [Example 106, 5-fluoro-3-(1-methylpiperidin-4-yl)-2H-isoquinolin-1-one]	40 nM		220 to 222 °C	
COc1cccc2c(=O)[nH]c(C3CCN(C)CC3)cc12 [Example 107, 5-methoxy-3-(1-methylpiperidin-4-yl)-2H-isoquinolin-1-one]	45 nM		239 to 242 °C	
CN1CCC(c2cc3c(O)cccc3c(=O)[nH]2)CC1 [Example 108, 5-hydroxy-3-(1-methylpiperidin-4-yl)-2H-isoquinolin-1-one]	12 nM	124 nM		residual ratio (%) under shading 1 day later [3]: ≈100%; residual ratio (%) under shading 8 days later [3]: ≈100%; residual ratio (%) without shading 1 day later [3]: ≈100%; residual ratio (%) without shading 8 days later [3]: ≈100%
Cc1cccc2c(=O)[nH]c(C3CCN(C)CC3)nc12 [Example 121, 2-(1-methylpiperidin-4-yl)-8-methyl-3H-quinazolin-4-one]	37 nM	240 nM		residual ratio (%) under shading 1 day later [3]: ≈100%; residual ratio (%) under shading 8 days later [3]: ≈100%
Cc1cccc2c(=O)[nH]c(C3CN4CCC3CC4)nc12 (centres unmarked) [Example 138, 2-(1-azabicyclo[2.2.2]octan-3-yl)-8-methyl-3H-quinazolin-4-one]	58 nM		230 to 231 °C (dec.)	
CN1CCN(c2cc3ccccc3c(=O)[nH]2)C[C@H]1CO [Example 156, (S)-3-(3-hydroxymethyl-4-methylpiperazin-1-yl)-2H-isoquinolin-1-one]	35 nM	230 nM		Ki [4]: > 100000 nM
Cc1cccc2c(=O)[nH]c(C3CCN(C)CC3)cc12 [Example 178, 5-methyl-3-(1-methylpiperidin-4-yl)-2H-isoquinolin-1-one]	23 nM	90 nM		
CN1CCC(c2cc3c(N)cccc3c(=O)[nH]2)CC1 [Example 181, 5-amino-3-(1-methylpiperidin-4-yl)-2H-isoquinolin-1-one]	22 nM	220 nM		
CN1CCC(c2cc3ccc(Cl)cc3c(=O)[nH]2)CC1 [Example 183, 7-chloro-3-(1-methylpiperidin-4-yl)-2H-isoquinolin-1-one]	44 nM		253 to 255 °C	
CN1CCC(C2Cc3c(O)cccc3C(=O)N2)CC1 (centres unmarked) [Example 184, 5-hydroxy-3-(1-methylpiperidin-4-yl)-3,4-dihydro-2H-isoquinolin-1-one]	26 nM		216 to 218 °C	
CN(C)CCCc1cc2c(O)cccc2c(=O)[nH]1 [Example 186, 5-hydroxy-3-(3-dimethylaminopropyl)-2H-isoquinolin-1-one hydrochloride]	14 nM	130 nM		
CN(C)CCCCc1cc2c(O)cccc2c(=O)[nH]1.Cl [Example 188, 5-hydroxy-3-(4-dimethylaminobutyl)-2H-isoquinolin-1-one hydrochloride]	57 nM		231 to 233 °C	
O=c1[nH]c(CCN2CCCCC2)cc2c(O)cccc12 [Example 189, 5-hydroxy-3-(2-(piperidin-1-yl)ethyl)-2H-isoquinolin-1-one]	17 nM	85 nM		
CN1CC=C(c2cc3ccccc3c(=O)[nH]2)CC1 [Example 190, 3-(1-methyl-1,2,3,6-tetrahydropyridin-4-yl)-2H-isoquinolin-1-one]	39 nM		222 to 223 °C	
CN1CCN(c2cc3c(F)cccc3c(=O)[nH]2)CC1CO (centres unmarked) [Example 205, 5-fluoro-3-(3-hydroxymethyl-4-methylpiperazin-1-yl)-2H-isoquinolin-1-one]	54 nM		216 to 217 °C	
Cc1cccc2c(=O)[nH]c(N3CCN(C)[C@H](CO)C3)cc12 [Example 212, (S)-3-(3-hydroxymethyl-4-methylpiperazin-1-yl)-5-methyl-2H-isoquinolin-1-one]	23 nM	70 nM		Ki [4]: > 100000 nM
O=c1[nH]c(CCCN2CCCC2)cc2ccccc12 [Example 213, 3-(3-(pyrrolidin-1-yl)propyl)-2H-isoquinolin-1-one]	57 nM		117 to 119 °C	
CN1CCN(c2cc3c(Cl)cccc3c(=O)[nH]2)CC1CO (centres unmarked) [Example 214, 5-chloro-3-(3-hydroxymethyl-4-methylpiperazin-1-yl)-2H-isoquinolin-1-one]	45 nM		212 to 214 °C	
O=c1[nH]c(CCCN2CCCC2)cc2c(O)cccc12 [Example 217, 5-hydroxy-3-(3-(pyrrolidin-1-yl)propyl)-2H-isoquinolin-1-one]	28 nM		222 to 225 °C	
CN1CCN(c2cc3ccccc3c(=O)[nH]2)CC1 [Example Y-3011, reference compound]	50 nM			Ki [4]: 4000 nM; PARP inhibitory activity (in words) ([1]; comparison drawn from Table 1): most superior PARP inhibitory activity; residual ratio (%) under shading 1 day later [3]: 76%; residual ratio (%) under shading 8 days later [3]: 32%

Reference: patent US20040176361A1, “Fused heterocyclic compound and medicinal use thereof” (priority 2001, published 2004)
